One data set concerns Hh pathway. Put plainly: Shh-EGFP assay for Hh pathway activation. In kind it is cell-based. The note with it: Shh-N-conditioned medium; HPIs at ten-fold their Shh-LIGHT2 IC50 or 30 μM, whichever lower. Here is the method:
Shh-EGFP assay for Hh pathway activation. A Gli-dependent enhanced green fluorescent protein reporter (Shh-EGFP) was generated by excising firefly luciferase cDNA from the 8XGliBs vector using NcoI/Hpal, and ligating in EGFP cDNA excised from the pEGFP-C1 vector (Clontech) by NcoI/Af/II digestion. […] The cells were grown to confluency and treated with DMEM containing 0.5% CS, 100 U/mL penicillin, 0.1 mg/mL streptomycin, and 5% Shh-N-conditioned medium for 30 h. Following Shh-N treatment, the adherent cultures were dissociated into single cells with 0.05% Trypsin-EDTA (300 μL/well; Invitrogen) for 5 min. The cells were then suspended in 1 mL of PBS containing 1% CS and sorted on a BD FACSAria (excitation: 488 nm; emission: 530/30 nm) to enrich for cells expressing EGFP in a Shh-N-responsive manner. […] To identify Shh-EGFP clones with maximum Shh-N-responsiveness, individual lines were seeded into 24-well plates (45,000 cell/well) and cultured for 48 h. The cells were then treated with DMEM containing 0.5% CS, 100 U/mL pencillin, 0.1 mg/mL streptomycin or the culture medium plus 5% Shh-N-conditioned medium. After 30 h, the adherent cultures were treated with 0.05% trypsin-EDTA (150 μL/well; Invitrogen) for 5 min to dissociate them into single cells. The cells were then resuspended in 500 μL of PBS containing 1% CS and analyzed on a BD FACSCalibur (excitation: 488 nm; emission: 530/30 nm). 10,000 cells were used to assess EGFP expression levels as a measure of Hh pathway activation, and the data was analyzed using FlowJo software (Tree Star). Clones with low basal EGFP levels and maximum Shh-Ninduced EGFP expression were selected for further use. To assess the inhibitory activities of the HPIs in the Shh-EGFP cells, a clonal line with maximum Shh-responsiveness was cultured in 24-well plates as described above. […] The resulting EGFP levels were then evaluated by FACS and quantified using the FlowJo software.

For another data set, the target named is T1, Gli1 (Mus musculus, UniProt P47806).
T1 construct: expressed in transfected cells; host or cells: NIH-3T3
T1 sequence (P47806 1-1111): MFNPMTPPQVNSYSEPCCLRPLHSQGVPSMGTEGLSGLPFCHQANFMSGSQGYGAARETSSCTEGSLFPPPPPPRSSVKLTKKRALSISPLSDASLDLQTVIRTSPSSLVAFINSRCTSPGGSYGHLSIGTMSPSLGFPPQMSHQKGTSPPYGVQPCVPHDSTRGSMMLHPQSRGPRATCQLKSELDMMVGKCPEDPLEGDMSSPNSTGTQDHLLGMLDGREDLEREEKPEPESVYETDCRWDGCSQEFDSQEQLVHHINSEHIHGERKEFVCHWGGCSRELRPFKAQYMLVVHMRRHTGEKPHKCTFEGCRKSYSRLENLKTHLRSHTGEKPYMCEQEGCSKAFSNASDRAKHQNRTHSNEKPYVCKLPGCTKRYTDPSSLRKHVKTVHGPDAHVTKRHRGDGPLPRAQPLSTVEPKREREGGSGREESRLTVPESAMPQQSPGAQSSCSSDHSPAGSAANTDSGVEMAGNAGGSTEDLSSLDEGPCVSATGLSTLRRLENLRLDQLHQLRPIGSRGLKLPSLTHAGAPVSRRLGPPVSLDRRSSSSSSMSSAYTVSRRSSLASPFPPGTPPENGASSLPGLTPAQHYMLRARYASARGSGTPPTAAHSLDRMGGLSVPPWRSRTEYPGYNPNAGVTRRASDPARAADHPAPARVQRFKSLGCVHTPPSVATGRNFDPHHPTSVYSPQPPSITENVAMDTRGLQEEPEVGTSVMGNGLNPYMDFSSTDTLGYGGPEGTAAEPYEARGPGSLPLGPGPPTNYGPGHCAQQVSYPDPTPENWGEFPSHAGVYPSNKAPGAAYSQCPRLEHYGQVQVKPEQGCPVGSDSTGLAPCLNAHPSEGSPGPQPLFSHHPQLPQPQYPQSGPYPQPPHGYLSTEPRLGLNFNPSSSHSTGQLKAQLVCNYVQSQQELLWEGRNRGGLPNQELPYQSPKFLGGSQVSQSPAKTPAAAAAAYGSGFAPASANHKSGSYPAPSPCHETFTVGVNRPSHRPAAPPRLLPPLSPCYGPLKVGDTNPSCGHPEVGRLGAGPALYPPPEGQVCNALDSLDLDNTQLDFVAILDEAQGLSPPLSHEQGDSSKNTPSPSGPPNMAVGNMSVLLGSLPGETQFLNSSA
Put plainly: Hh pathway activation mediated by overexpression of Gli1. Type of data set: cell-based. Conditions: for Inhibition of Hh pathway activity induced by Gli1 overexpression: NIH-3T3 cells, Gli-dependent firefly luciferase; for IC50: NIH-3T3 cells overexpressing Gli1, read-out: IC50 (uM) Gli1 Transfected or Infection. Here is the method: Hh pathway activation mediated by the overexpression of Gli, Gli2, Gli2αPKA, or Gli2αGSK. […] The cells were co-transfected the following day with 220 ng/well pcDNA-derived Gli1, Gli2, or Gli2 phosphosite mutant expression vectors and 80 ng/well of a 1:15 mixture of phRLTK (Promega) and 8XGIiBS-FL. After transfection, cells were grown to confluence (approximately 48 h). The cell were then incubated for an additional 28-32 h in DMEM containing 0.5% CS, 100 U/mL penicillin, 0.1 mg/mL streptomycin, and either DMSO, 50 μM forskolin, 50 μM LY294002, or various concentrations of the HPIs. Firefly and Renilla luciferase activities were measured using a dual luciferase kit and a Veritas microplate luminometer.

For a further data set, the target named is Smo (Mus musculus, UniProt P56726). Put plainly: BODIPY-cyclopamine/Smo binding assay. Conditions: 5 nM BODIPY-cyclopamine, Smo-overexpressing HEK-293T cells, HPIs 20 μM. Also on record: expressed in transfected cells; host or cells: HEK-293T; species or system murine. Here is the method: BODIPY-cyclopamine/Smo binding assay. Smo-binding assays were conducted with BODIPY-cyclopamine and Smooverexpressing and HEK-293T cells as previously described, using a CMV-promoter based SV40 origin-containing expression construct for Smo-Myc3 (murine Smo containing three consecutive Myc epitopes at the C-terminus). […] The cells were cultured until they reached 55 to 65% confluency (14-18 h), after which they were transfected with the Smo-Myc3 expression construct and FuGENE (Roche) according to the manufacturer's protocols. 24 h after transfection, the cells were washed with phosphate-buffered saline (PBS) and cultured in DMEM containing 0.5% FBS, 5 nM BODIPY-cyclopamine, and individual HPIs (20 μM). After 30 min, 10 μM Hoescht 33342 was added to each well, and the HPIs were incubated with the cells for an additional 60 min. The cells were then washed two times with PBS buffer, mounted in Prolong Gold (Invitrogen) and immediately imaged using a DM4500B compound microscope (Leica).
Chain of Smo (P56726 33-793): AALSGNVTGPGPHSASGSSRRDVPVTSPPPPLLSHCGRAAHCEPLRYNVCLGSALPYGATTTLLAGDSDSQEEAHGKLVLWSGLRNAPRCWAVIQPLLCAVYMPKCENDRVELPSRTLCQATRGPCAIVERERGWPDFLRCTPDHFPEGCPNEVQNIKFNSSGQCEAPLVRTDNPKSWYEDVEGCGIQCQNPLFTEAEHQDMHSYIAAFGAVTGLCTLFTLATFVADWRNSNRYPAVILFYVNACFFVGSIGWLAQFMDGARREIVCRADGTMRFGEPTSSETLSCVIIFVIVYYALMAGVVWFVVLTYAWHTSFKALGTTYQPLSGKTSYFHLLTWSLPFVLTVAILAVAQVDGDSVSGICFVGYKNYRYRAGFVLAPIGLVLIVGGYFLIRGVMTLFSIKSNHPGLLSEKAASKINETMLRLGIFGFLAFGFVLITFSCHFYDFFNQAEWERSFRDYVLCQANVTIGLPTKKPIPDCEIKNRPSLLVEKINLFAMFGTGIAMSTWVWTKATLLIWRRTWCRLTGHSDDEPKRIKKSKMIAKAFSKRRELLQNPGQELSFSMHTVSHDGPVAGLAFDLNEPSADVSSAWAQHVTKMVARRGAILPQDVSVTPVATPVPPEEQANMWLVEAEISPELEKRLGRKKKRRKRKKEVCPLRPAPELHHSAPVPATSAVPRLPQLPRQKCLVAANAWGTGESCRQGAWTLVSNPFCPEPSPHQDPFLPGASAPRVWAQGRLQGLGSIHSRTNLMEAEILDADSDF

Entries after “also recorded” stand apart in the source; their conditions may differ.

This note sets out measurements from US8119640B2, “Hedgehog pathway antagonists methods of use” (The Board of Trustees of the Leland Stanford Junior …, priority 2008, dated 2012).

Consider `COCCOC(=O)C1=C(C)NC2=C(C(=O)CC(c3ccccc3OC)C2)C1c1cccc(O)c1` (mixture of isomers) [Compound 8, 4-(3-Hydroxy-phenyl)-7-(2-methoxy-phenyl)-2-methyl-5-oxo-1,4,5,6,7,8-hexahydro-quinoline-3-carboxylic acid 2-methoxy-ethyl ester], for which the “% Inhibition Shh-GFP cells” value with Hh pathway came to 86%. The “Inhibition of Hh pathway activity induced by Gli1 overexpression” value (from here on “Inhibition … by Gli1 overexpression”) on Gli1 (listed as HPI-1) is recorded as “inhibit Gli-induced firefly luciferase expression in a dose-dependent manner; also recorded: inhibits”. The BODIPY-cyclopamine competition result on Smo is on record as “No”.

Regarding `CCN1CCCC1CNC(=O)C1CCN(c2nc3c(C)cc(C)cc3s2)CC1` (stereo not shown) [Compound 7], in the data set on Hh pathway, the “% Inhibition Shh-GFP cells” value came to 90.5%. At Gli1, the “Toxicity noted in Gli1 Transfected or Infection column” value is “(Toxic at 30)” and the 50% inhibitory concentration (IC50) is over 10 µM. Moreover, the BODIPY-cyclopamine competition result on Smo is “No”.

In the case of `O=C(Nc1nnc(S(=O)(=O)N2CCCCC2)s1)c1cccc(Br)c1` [Compound 15], the “% Inhibition Shh-GFP cells” value in the data set with Hh pathway is recorded as 86.9%. Also, on Gli1, the IC50 was determined as 12 µM. The BODIPY-cyclopamine competition result at Smo is recorded as “No”.

In the case of `CCOC(=O)c1cc2c(=O)n3ccccc3nc2n(C(C)C)c1=NC(=O)c1cc(OC)cc(OC)c1` [Compound 6], the “% Inhibition Shh-GFP cells” value with Hh pathway is recorded as 84.5%. Further, the IC50 at Gli1 is 1.5 µM. Moreover, on Smo, the BODIPY-cyclopamine competition entry is “No”.

For the molecule `Cc1cc(/C=c2\sc3nc4ccccc4n3c2=O)c(C)n1C(C)C` [Compound 3], in the data set on Hh pathway, the “% Inhibition Shh-GFP cells” value amounted to 60.5%. The IC50 on Gli1 came out at 1 µM. Moreover, on Smo, the BODIPY-cyclopamine competition entry was “No”.

With `O=C(Nc1cccc2ccccc12)OC[C@@H]1CCCN2CCCC[C@H]12` [Compound 4], in the data set with Hh pathway, the “% Inhibition Shh-GFP cells” value turned out to be 63%. Moreover, the IC50 on Gli1 is over 30 µM. Also, on Smo, the BODIPY-cyclopamine competition entry is listed as “No”.

As for `OCCNc1nc(N2CCN(c3ccccc3)CC2)nc2ccccc12` [Compound 11], in the data set with Hh pathway, the “% Inhibition Shh-GFP cells” value is reported as 76.7%. The IC50 on Gli1 is over 30 µM. Moreover, on Gli1 (listed as HPI-3), the “Inhibition … by Gli1 overexpression” value is “no significant activity; also recorded: inactive”. For the same molecule, the BODIPY-cyclopamine competition result on Smo is recorded as “No”.

On to `CC(C)(C)N(CCNS(=O)(=O)c1ccc(-c2cc(C(F)(F)F)no2)s1)Cc1ccco1` [Compound 12], for which, in the data set with Hh pathway, the “% Inhibition Shh-GFP cells” value was determined as 87.5%. Besides, on Gli1, the IC50 turned out to be 4 µM. Besides, the BODIPY-cyclopamine competition entry at Smo was “No”.

In the case of `CN1CCN(C2Cc3ccccc3Sc3ccccc32)CC1` (stereo not shown) [Compound 13], in the data set on Hh pathway, the “% Inhibition Shh-GFP cells” value is 78.3%. Further, on Gli1, the IC50 was over 30 µM. Further, the BODIPY-cyclopamine competition entry at Smo is given as “No”.

Consider `N#Cc1cc2c(nc1SCC(=O)Nc1nc3ccccc3s1)CCC2` [Compound 1], for which the “% Inhibition Shh-GFP cells” value with Hh pathway is 74.4%. The IC50 on Gli1 came to 1 µM. For the same molecule, at Smo, the BODIPY-cyclopamine competition result is reported as “No”.

As to `CCOc1ccc2ncc(C(=O)c3ccc(C)cc3)c(N3CCCC3)c2c1` [Compound 14], the “% Inhibition Shh-GFP cells” value in the data set on Hh pathway amounted to 67.2%. The IC50 at Gli1 was over 30 µM. Also, on Smo, the BODIPY-cyclopamine competition result is on record as “No”.

As to `N#CC(C(=O)c1ccc(Cl)cc1Cl)=C1NC(=O)c2ccccc2N1` [Compound 18], the “% Inhibition Shh-GFP cells” value in the data set on Hh pathway is listed as 80%. On Gli1, the IC50 was over 10 µM. Also, the “Inhibition … by Gli1 overexpression” value at Gli1 (listed as HPI-4) was “no significant activity; also recorded: inactive”. Further, on Smo, the BODIPY-cyclopamine competition result is recorded as “No”.

In the case of `CCC(C)NS(=O)(=O)c1ccc(Cc2ccc(S(=O)(=O)NC(C)CC)cc2)cc1` (stereo not shown) [Compound 5], the “% Inhibition Shh-GFP cells” value with Hh pathway is on record as 84.9%. Further, the IC50 on Gli1 is 7 µM. Also, the BODIPY-cyclopamine competition entry at Smo is reported as “No”.

Consider `COc1ccc(OC)c2c1cc1n2CC(C)(C(=O)NC2CCCCCCC2)N(CCN(C)C)C1=O` (stereo not shown) [Compound 17], for which the “% Inhibition Shh-GFP cells” value in the data set on Hh pathway amounted to 80.2%. On Gli1, the IC50 is over 30 µM and the “Inhibition … by Gli1 overexpression” value is on record as “entirely due to a moderate increase in Renilla luciferase activity”. Also, the BODIPY-cyclopamine competition result at Smo is “No”.

In the case of `CCOc1ccc(CCNc2cnnc3c(Cl)cccc23)cc1OCC` [Compound 16], in the data set with Hh pathway, the “% Inhibition Shh-GFP cells” value was determined as 82.7%. At Gli1, the concentration for half-maximal inhibition (IC50) is over 30 µM. Besides, the BODIPY-cyclopamine competition result at Smo is “No”.

In the case of `CCCCNC(=N)C(C)c1ccc(CC(C)C)cc1` (stereo not shown) [Compound 2], in the data set with Hh pathway, the “% Inhibition Shh-GFP cells” value came to 80.9%. Besides, the IC50 at Gli1 is over 30 µM. In addition, the BODIPY-cyclopamine competition result at Smo was “No”.

As to `O=S(=O)(Nc1cc(Cl)c(Cl)cc1Cl)c1ccc(F)cc1` [Compound 10], in the data set on Hh pathway, the “% Inhibition Shh-GFP cells” value amounted to 78.8%. Further, the IC50 at Gli1 is 2 µM. The BODIPY-cyclopamine competition result at Smo was “No”.

For `CCOC(=O)c1cn(-c2ccccc2)nc1-c1ccc(OC)c(OC)c1` [Compound 9], the “% Inhibition Shh-GFP cells” value in the data set on Hh pathway is on record as 86.5%. In addition, the IC50 on Gli1 was over 30 µM. Moreover, the BODIPY-cyclopamine competition entry on Smo is recorded as “No”.

As a reminder, the IC50 is the concentration that gives 50% inhibition.
